Measurements taken from article PMC10449632, “Structural basis for translation inhibition by the glycosylated drosocin peptide” (Nature Chemical Biology, 2023).
No end group written: not given here. *: point of attachment. αGalNAc = CC(=O)N[C@@H]1[C@@H](O)[C@@H](O)[C@@H](CO)O[C@@H]1*

Assays:
[1] = system: E. coli Keio ∆sbmA (BW25113 ΔsbmA); experiment: Antibiotic susceptibility (growth) assay, E. coli Keio ΔsbmA; type: cell-based, Escherichia coli; settings: 30 μM peptide, average of three biological replicates
Text: Many PrAMPs use the SbmA transporter to pass through the E. coli inner membrane[4],[10],[31]; however, whether drosocin also uses SbmA remains, to our knowledge, unknown. To address this, we monitored the effect of the presence of diverse drosocin peptides (Fig. 1a,b and Supplementary Fig. 1a) on the growth of the wild-type E. coli strain BW25113 containing SbmA or lacking SbmA (ΔsbmA) (Fig. 1c,d). We compared unmodified drosocin (Dro) with various modified forms (Fig. 1a,b). The modified forms included the naturally occurring Dro1 and Dro2 that carry either a monosaccharide (α-D-GalNAc) or disaccharide (β-D-Gal(1→3)-α-D-GalNAc) attached to Thr11, respectively (Fig. 1b). In addition, we examined the previously reported[23],[24] drosocin derivatives bearing β-D-Maltosyl (Dro3), α-D-GlcNAc (Dro4), β-D-Gal (Dro5), β-D-Glc (Dro6), β-D-Lactosyl (Dro7) and β-D-Cellobiosyl (Dro8) modifications on Thr11 (Fig. 1a,b and Supplementary Fig. 1a). Finally, we also included in our analysis the synthetic unmodified drosocin derivative with proline substitutions at positions 7, 11 and 12 (Dro-3P) (Fig. 1a), which was previously reported to have similar antimicrobial activity to the monosaccharide form of drosocin[25]. Growth was monitored in both rich (LB) and minimal medium in the presence of 30 μM of each peptide and normalized with the growth in the absence of the compounds (Methods). […] We also observed no inhibition for Dro2 nor for any of the β-linked disaccharides (Dro3, Dro6 or Dro7). […] By contrast, all drosocin peptides inhibited growth of the E. coli BW25113 strain in minimal medium, albeit to different extents (Fig. 1d).
(§1) Strains E. coli Keio wild-type and E. coli Keio ΔsbmA used from the Keio knockout collection (Horizon, https://horizondiscovery.com). Wild-type E. coli SQ110 (ΔrrnGADBHC(ptRNA67))[47] and SQ171 (ΔrrnGADEHBC(pKK3535, ptRNA67))[47] strains and related mutants E. coli SQ110 A2059G and E. coli SQ171 A2503G were obtained from the previous Api137 study. E. coli strains SQ171 bearing A752G, U2609C and A752G:U2609C mutations[43] and E. coli SQ171 U2609G[48] were generated previously.
(§2) The susceptibility of E. coli strains to compounds was evaluated by monitoring the bacterial growth in presence of increasing concentrations of the compound of interest. In brief, bacteria were inoculated in a total volume of 100 μl of medium contained in a well of a 96-well microplate (round bottom, with cap, sterile; Sarstedt). The medium used was either LB, as rich medium, or ATCC medium (778 Davis and Mingioli glucose minimal medium), as minimal medium. Before inoculation, bacteria were grown up to exponential phase and then inoculated into the culture mix, containing selective antibiotic if necessary, with an initial optical density at 600 nm (OD600) of 0.05. Values measured from wells containing just the medium were used as a blank. The growth in each well was monitored by measuring the OD600 every 10 minutes for a total of 20 hours at 37 °C with shaking using a plate reader (Tecan Infinite 200 PRO). The inhibition resulting from a compound’s concentration was evaluated by normalizing the OD600 at t = 12 hours (corresponding to the end of the log phase) from the treated culture to the untreated one. For each compound, the concentrations tested were 5 μM, 10 μM and 30 μM. Each single titration assay was done in triplicate with individually prepared culture mixes. For each concentration, the standard deviation was calculated, taking into account each single replica and its specific technical error from the plate reader.

E. coli SQ110 A2059G = experiment: Antibiotic susceptibility (growth) assay, E. coli SQ110 A2059G; type: cell-based, Escherichia coli; settings: A2059G mutation; LB medium; 5, 10, 30 μM
Text: as §1
(§3) The susceptibility of E. coli strains to compounds was evaluated by monitoring the bacterial growth in presence of increasing concentrations of the compound of interest. […] Values measured from wells containing just the medium were used as a blank. The growth in each well was monitored by measuring the OD600 every 10 minutes for a total of 20 hours at 37 °C with shaking using a plate reader (Tecan Infinite 200 PRO). The inhibition resulting from a compound’s concentration was evaluated by normalizing the OD600 at t = 12 hours (corresponding to the end of the log phase) from the treated culture to the untreated one. […] For each concentration, the standard deviation was calculated, taking into account each single replica and its specific technical error from the plate reader.

E. coli SQ171 wt = experiment: Antibiotic susceptibility (growth) assay, E. coli SQ171 wt; type: cell-based, Escherichia coli; settings: relative to no compound, mean of 3 replicas
Text: as §1, §2

E. coli SQ171 A2503G = experiment: Antibiotic susceptibility (growth) assay, E. coli SQ171 A2503G; type: cell-based, Escherichia coli; settings: A2503G mutation; LB medium; 5, 10, 30 μM
Text: as §1, §3

[2] = system: ribosomes at the stop codon of MLIF-UAA mRNA in the presence of RF1; experiment: Toeprinting assay on MLIF*-mRNA with RF1; type: biochemical, Escherichia coli; settings: for Relative stop band intensity signal: 30 μM compound, MLIF*-mRNA, plotted values; for stalling of ribosomes at the stop codon: toeprinting, 30 μM peptide, 1× or 10× RF1 (trend also with ten-fold RF2)
Procedure: (§4) To ascertain which step during protein synthesis is affected by drosocin, we performed toeprinting assays, where reverse transcription is used to monitor the position of ribosomes on a defined mRNA[34].
(§5) Toeprinting reactions were performed as described previously. In brief, reactions were performed with 6 μl of PURExpress ΔRF123 in vitro protein synthesis system (NEB) in the presence of 1× RF3 and either 1× or 10× of RF1 or RF2 (relative to the manufacturer’s recommendation). The reactions were carried out on an MLIF-UAA-toeprint template (5′-[…]-3′, ORF start codon and stop codon are underlined bold), containing T7 promoter, a ribosome binding site, an MLIF-coding ORF and the NV1* primer binding site. The template is a version of the ErmBL template with a truncated ORF and addition of a isoleucine coding codon at the third position in the ORF. The template was generated by polymerase chain reaction of two overlapping 77-nt- and 78-nt-long primers. The reactions contained 30 ng of the MLIF-UAA-toeprint DNA template. The reactions were supplemented with Api137, thiostrepton or one of the drosocin derivates as specified. The transcription–translation reactions were incubated for 15 minutes at 37 °C. The reverse transcription on the MLIF-short-UAA toeprint template was carried out using AMV RT and primer NV*1-Alexa 647 (5′-[…]-3′). The transcription–translation reactions were incubated with AMV RT and NV*1-Alexa 647 for 20 minutes at 37 °C. mRNA degradation was carried out by the addition of 1 µl of 5 M NaOH. The reactions were neutralized with 0.7 µl of 25% HCl, and nucleotide removal was performed with the QIAquick Nucleotide Removal Kit (Qiagen). The samples were dried under vacuum for 2 hours at 60 °C for subsequent gel electrophoresis. The 6% acrylamide gels were scanned on a Typhoon scanner (GE Healthcare).

[3] = system: ribosomes at the stop codon of MLIF-UAA mRNA in the presence of RF2; experiment: Toeprinting assay on MLIF*-mRNA with RF2; type: biochemical, Escherichia coli; settings: Fig 1h, RF2 (10X), 30 μM compound, plotted values
Procedure: as §4, §5

| Substance | Average of normalized growth ([1]; LB rich medium) [%] | Average of normalized growth ([1]; Minimal medium) [%] | resistance of mutant compared to the wild-type strain (E. coli SQ110 A2059G) | OD600 at t = 12 h, Normalized, Average (E. coli SQ171 wt; 5 μM) [%] | OD600 at t = 12 h, Normalized, Average (E. coli SQ171 wt; 30 μM) [%] | resistance of mutant compared to the wild-type strain (E. coli SQ171 A2503G) | Relative stop band intensity signal ([2]; Fig 1f, RF1 (1X)) | Relative stop band intensity signal ([2]; Fig 1g, RF1 (10X)) | stalling of ribosomes at the stop codon [2] | Relative stop band intensity signal [3] |
| --- | --- | --- | --- | --- | --- | --- | --- | --- | --- | --- |
| Dro1: naturally occurring drosocin carrying monosaccharide α-D-GalNAc attached to Thr11 (GKPRPYSPRPT(αGalNAc)SHPRPIRV; UniProt P36193 22-40, looked up) | 99 | 106 | more resistant | 93 | 11 | more resistant | 0.3782 | 0.6764 | strongest stalling | 0.1899 |
| Dro: unmodified drosocin, 19 amino acid proline-rich antimicrobial peptide lacking O-glycosylation (GKPRPYSPRPTSHPRPIRV; Drosocin; UniProt P36193 22-40, looked up) | 102 | 102 | – | 86 | 72 | – | 0.2211 | 0.4823 | good activity | 0.1232 |
